In US9037228B2, “Method and system for detecting electrophysiological changes in pre-cancerous and cancerous tissue” (Epi-Sci, LLC, priority 2002, dated 2015):
Like-named read-outs stand apart in the source and are kept apart here.

Tests used:
[1] = tested on: apical K+ channels of human colonic mucosa; conditions: normal colon, 30 mM mucosal TEA after elevated serosal K+, 0.1 mM amiloride present
Procedure: The potassium permeability of the apical membrane of human colonic mucosa (P^Ka) was determined in surgical specimens of controls and grossly normal-appearing mucosa obtained 10-30 cm proximal to colorectal adenocarcinomas. The mucosa was mounted in Ussing chambers and the basolateral membrane resistance and voltage were nullified by elevating the K^+ in the serosal bathing solution. The apical sodium (Na^+) conductance was blocked with 0.1 mM amiloride. This protocol reduces the equivalent circuit model of the epithelium to an apical membrane conductance and electromotive force in parallel with the paracellular pathway as has been verified by microelectrode studies. […] The serosal bath was remained constant at 125 mM [K].

[2] = tested on: human breast epithelial cells; assay: Cell membrane potential (ψ) in human breast epithelial cells, potentiometric fluorescent probe; format: cell-based
Procedure: Measurements were made using a potentiometric fluorescent probe, and ratiometric measurements, which are calibrated using valinomycin and K^+-gradients. ψs were measured in the presence (closed circles) and absence (open circles) of estradiol (the active metabolite of estrogen). Each symbol is the mean measurement. The upper error bar is the standard error of the mean, and the lower error bar is the 95% confidence level for the observations. The addition of estrogen to cultured breast epithelial cells results in an instantaneous increase in ψ (data not shown) as well as transepithelial potential see FIG. 10. Transepithelial potential (VT) of an epithelium is the sum of the apical (luminal) cell membrane potential (VA) and the basolateral (abluminal) cell membrane potential (VBL). Therefore VT=VA+VBL(changes in VA and VBL will therefore alter VT or transepithelial potential). […] Malignant and transformed cells have a ψ of between −31 and −35 mV in the absence of estradiol and approximately […] when estradiol is present in the culture medium.

[3] = tested on: benign and malignant human breast epithelial cells; assay: Transepithelial potential (TEP) of breast epithelial monolayers in modified Ussing chambers, voltage clamp; format: cell-based
Procedure: It should be noted that the instantaneous response, illustrated in FIG. 10, is greater in malignant epithelia, whereas the chronic or sustained exposure to estradiol results in a lower increase in TEP (transepithelial electropotential) in malignant cells. Concurrent measurement of surface electropotential and impedance allow the more accurate diagnosis of cancer. […] The cells were grown as monolayers on Millipore filters and grew to confluence in 7 to 10 days. The epithelia were then mounted in modified Ussing chambers and the TEP was measured using a voltage clamp. Increasing doses of estradiol between 0 and 0.8 μM were added (x-axis). The transepithelial potential was measured after each addition and the TEP was measured (y-axis). The different dose response is apparent for benign and malignant epithelia. Malignant epithelia have a lower TEP but undergo an instantaneous increase in TEP of approximately 9 mV (becomes more electronegative and reaches a level of <6 mV) after exposure to only 0.1 μM estradiol and then depolarize to approximately −2 mV with increasing doses of estradiol up to about 0.5 μM.

[4] = tested on: breast tissue; assay: Electrophysiological (TEP) response of breast tissue to estradiol given into the duct or sublingually; format: in vivo; conditions: into the duct or sublingual 17-β-estradiol (4 mg)
Procedure: In one method of present invention, estradiol is introduced directly into the duct or systematically following sublingual administration of 17-β-estradiol (4 mg). This agent produces a rapid response, which peaks at approximately 20 minutes. The electrophysiological response depends, in part, on the stage of the patient's menstrual cycle, as well as the condition of the breast tissue. Specifically, in normal breast tissue, a rise in TEP will occur during the follicular (or early) phase. In pre-cancerous or cancerous tissue, this response is abrogated.

[5] = tested on: human prostatic epithelial cells; conditions: cells grown in presence of DHT
Description: FIG. 13 represent measurements of cell membrane potential (ψ) in human prostatic epithelial cells under different growth conditions. A Voltage-sensitive FRET (fluorescent energy transfer) probe was used for potentiometric ratio measurements. It has two fluorescent components: CC2-DMPE (Coumarin) and DISBAC2(3) (Oxonol). The oxonol distributes itself on opposite sides of the cell membrane in a Nernstian manner according to the ψ. The voltage sensitive distribution of oxonol is transduced through a ratiometric fluorescence signal via the coumarin which is bound to the outside surface of the cell membrane thereby amplifying the fluorescence. Measurements were made using a fluorescence microscope and a digital imaging system. The ratio measurements are calibrated using Gramicidin D to depolarize the cell membrane and then varying the external K^+-concentration. The calibrated cell membrane potential in mV is depicted on the y-axis.
The filled bars indicates the ψ of exponentially growing prostatic epithelial cells before they reach confluence, whereas the open bars depict the ψ of the cells once they reach confluence and cell growth slows.

[6] = tested on: colonic mucosa; assay: TEP response of colonic mucosa to topically applied amiloride
Description: The measured TEP decreases in response to a topically applied amiloride (a sodium channel blocker) in normal colonic mucosa. This response is reduced by approximately 50% in pre-cancerous mucosa or by greater than 75% in cancerous mucosa. In addition, the loss in sodium conductance results in an increase of impedance of the surface epithelium. This ion transport alteration may be measured by determining the change in TEP as well as the basal impedance. In abnormal pre-cancerous or cancerous tissue, the TEP is lower, the response of the TEP to amiloride is less, and the increase in impedance (observed in normal colon in response to amiloride) is less in abnormal pre-cancerous or cancerous tissue. Similar pharmacological agents may be introduced that alter the effect of chloride or potassium ion transport, which affect abnormal pre-cancerous or cancerous tissue in a different manner than in normal colon tissue.

[7] = malignant epithelia, after exposure to 0.1 μM estradiol

CC[N+](CC)(CC)CC [TEA, tetraethyl ammonium]
effect on Isc [1]: abrupt increase in Isc

C[C@]12CC[C@@H]3c4ccc(O)cc4CC[C@H]3[C@@H]1CC[C@@H]2O [estradiol, 17-β-estradiol]
cell membrane potential ψ ([2]; benign breast epithelial cells, estradiol added to the culture media (about −50 mV without)): ~−70 mV
cell membrane potential ψ ([2]; malignant and transformed cells, estradiol present in culture medium (−31 to −35 mV without)): approximately 50 mV
estradiol dose at which TEP response peaks ([3]; benign epithelia, then remains persistently elevated): ~0.3 µM
TEP level reached [3, 7]: < 6 mV
instantaneous increase in TEP [3, 7]: approximately 9 mV
TEP after depolarization ([3]; malignant epithelia, increasing doses of estradiol up to about 0.5 μM): approximately −2 mV
time of peak electrophysiological response [4]: approximately 20 minutes

C[C@]12CCC(=O)C[C@@H]1CC[C@@H]1[C@@H]2CC[C@]2(C)[C@@H](O)CC[C@@H]12 [DHT, dihydroxytestosterone]
effect on cell membrane potential ψ ([5]; exponential growth): slightly hyperpolarized
effect on cell membrane potential ψ ([5]; on reaching confluence): depolarize

N=C(N)NC(=O)c1nc(Cl)c(N)nc1N [amiloride]
reduction of the TEP response to amiloride ([6]; cancerous mucosa versus normal): greater than 75%
effect on measured TEP ([6]; normal colonic mucosa, topically applied): decreases
reduction of the TEP response to amiloride ([6]; pre-cancerous mucosa versus normal): approximately 50%
